The record followed here is patent US20260022142A1, “MACROCYCLIC IMMUNOMODULATORS” (Bristol-Myers Squibb Company, priority 2022, published 2026).

Bridge positions count the residues as written; N and C are the ends. Square brackets hold non-standard residues; d marks the D form. Peptide text beside a SMILES is read from it. * marks the point of attachment. ξ: configuration not given here. Phe(3-CF3) = N[C@@H](Cc1cccc(C(F)(F)F)c1)C(=O)O; Phe(4-CONH2) = NC(=O)c1ccc(C[C@H](N)C(=O)O)cc1; Phe(4-COOH) = N[C@@H](Cc1ccc(C(=O)O)cc1)C(=O)O; Bip = N[C@@H](Cc1ccc(-c2ccccc2)cc1)C(=O)O; NH(CH2)14COOH = O=C(O)CCCCCCCCCCCCCCN*; Phe(3-Me) = Cc1cccc(C[C@H](N)C(=O)O)c1; NH(CH2)12COOH = O=C(O)CCCCCCCCCCCCN*; Val(3-OH) = CC(C)(O)[C@H](N)C(=O)O; NMeR = CN[C@@H](CCCNC(=N)N)C(=O)O; 4Pal = N[C@@H](Cc1ccncc1)C(=O)O; Cha = N[C@@H](CC1CCCCC1)C(=O)O; Cit = NC(=O)NCCC[C@H](N)C(=O)O; Thr(3ξ) = CC(O)[C@H](N)C(=O)O; Carboxymethyl = O=C(O)C*; Orn = NCCC[C@H](N)C(=O)O; Aun = NCCCCCCCCCCC(=O)O; Dab = NCC[C@H](N)C(=O)O; Dap = NC[C@H](N)C(=O)O; AEEA = NCCOCCOCC(=O)O

In this assay the target is T1, PD-1/PD-L1 interaction (PE-labeled human PD-L1-Ig binding to Jurkat cell line over-expressing human PD-1) (Homo sapiens, UniProt Q15116).
T1 construct: expressed in transfected cells; host or cells: Jurkat
T1 sequence (Q15116 25-288): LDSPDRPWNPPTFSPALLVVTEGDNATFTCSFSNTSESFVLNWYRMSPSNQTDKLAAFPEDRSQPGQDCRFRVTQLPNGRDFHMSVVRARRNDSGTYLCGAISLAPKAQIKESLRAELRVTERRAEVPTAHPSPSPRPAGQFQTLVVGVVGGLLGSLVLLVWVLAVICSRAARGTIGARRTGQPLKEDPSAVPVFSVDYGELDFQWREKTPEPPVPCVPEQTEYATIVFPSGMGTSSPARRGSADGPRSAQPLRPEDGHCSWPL
Kind of assay: Jurkat-PD-1 Cell Binding High-Content Screening Assay (CBA). In kind it is cell-based. Conditions: Jurkat cell line over-expressing human PD-1; PE-labeled PD-L1-Ig 20 nM final; read-out: Jurkat hPD1-PDL1 IC50. Put shortly: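 First, compound is added to PD-1-expressing Jurkat cells in serum-containing DMEM and left 2 h at 37° C. Next, PE-conjugated PD-L1-Ig is introduced at 20 nM final concentration for 1 hour. Finally, cells are fixed in 4% paraformaldehyde with Hoechst 33342, washed and imaged.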
Regarding `CC[C@H](C)[C@@H]1NC(=O)[C@H](Cc2ccc(-c3ccccc3)cc2)NC(=O)[C@H](C(C)C)NC(=O)[C@H](Cc2c[nH]c3ccccc23)NC(=O)[C@H](CC(=O)O)NC(=O)[C@H](Cc2ccc(OCC(=O)O)cc2)NC(=O)[C@H](Cc2ccncc2)NC(=O)CSC[C@@H](C(=O)N[C@@H](CCCN)C(=O)NCCOCCOCC(=O)NCCCCCCCCCCC(=O)O)NC(=O)[C@H]([C@@H](C)O)NC(=O)[C@H](C(C)C)NC(=O)[C@H](CC(C)C)NC(=O)[C@H](CCN)NC(=O)[C@@H](CC(C)C)NC(=O)[C@H](CCCN)NC1=O` [Compound 1159] ({CH2CO}-[4Pal]Y(Carboxymethyl)DWV[Bip]I[Orn][dL][Dab]LVTC[Orn][AEEA][Aun]-OH; thioether N-14), the IC50 amounted to 33.4 nM. With `Cc1cccc(C[C@@H]2NC(=O)[C@H](CC(=O)O)NC(=O)[C@H](Cc3ccc(OCC(=O)O)cc3)NC(=O)[C@H](Cc3ccncc3)NC(=O)CSC[C@@H](C(=O)N[C@@H](CCN)C(=O)NCCCCCCCCCCC(=O)O)NC(=O)[C@H](C(C)O)NC(=O)[C@H](C(C)(C)O)NC(=O)[C@H](CC3CCCCC3)NC(=O)[C@H](Cc3cnc[nH]3)NC(=O)[C@@H](CC(C)C)NC(=O)[C@H](CCCN)NC(=O)[C@H](Cc3ccc(O)cc3)NC(=O)[C@H](Cc3ccc(-c4ccccc4)cc3)NC(=O)[C@H](Cc3ccc(C(N)=O)cc3)NC2=O)c1` (stereo partly drawn) [Compound 3728] ({CH2CO}-[4Pal]Y(Carboxymethyl)D[Phe(3-Me)][Phe(4-CONH2)][Bip]Y[Orn][dL]H[Cha][Val(3-OH)][Thr(3ξ)]C[Dab][Aun]-OH; thioether N-14), the IC50 came to 25.6 nM.

Regarding `Cc1cccc(C[C@@H]2NC(=O)[C@H](CC(=O)O)NC(=O)[C@H](Cc3ccc(OCC(=O)O)cc3)NC(=O)[C@H](CCN)NC(=O)CSC[C@@H](C(=O)N[C@@H](CCN)C(=O)NCCOCCOCC(=O)NCCOCCOCC(=O)NCCCCCCCCCCCCC(=O)O)NC(=O)[C@H](CO)NC(=O)[C@H](C(C)(C)O)NC(=O)[C@H](CC3CCCCC3)NC(=O)[C@H](Cc3c[nH]cn3)NC(=O)[C@@H](CC(C)C)NC(=O)[C@H](CCCN)NC(=O)[C@H](Cc3ccc(C(=O)O)cc3)NC(=O)[C@H](Cc3ccc(-c4ccccc4)cc3)NC(=O)[C@H](Cc3ccc(C(=O)O)cc3)NC2=O)c1` [Compound 2887] ({CH2CO}-[Dab]Y(Carboxymethyl)D[Phe(3-Me)][Phe(4-COOH)][Bip][Phe(4-COOH)][Orn][dL]H[Cha][Val(3-OH)]SC[Dab][AEEA][AEEA]-{NH(CH2)12COOH}; thioether N-14), the IC50 worked out at 18.4 nM. With `CC(C)C[C@H]1NC(=O)[C@H](CCCN)NC(=O)[C@H](C(C)C)NC(=O)[C@H](Cc2ccc(-c3ccccc3)cc2)NC(=O)[C@H](C(C)C)NC(=O)[C@H](Cc2c[nH]c3ccccc23)NC(=O)[C@H](CC(=O)O)NC(=O)[C@H](Cc2ccc(OCC(=O)O)cc2)NC(=O)[C@H](CCCNC(=N)N)NC(=O)CSC[C@@H](C(=O)N[C@@H](CCCN)C(=O)NCCCCCCCCCCC(=O)O)NC(=O)[C@H](C(C)O)NC(=O)[C@H](C(C)C)NC(=O)[C@H](CC2CCCCC2)NC(=O)[C@H](CCN)NC1=O` (stereo partly drawn) [Compound 3344] ({CH2CO}-RY(Carboxymethyl)DWV[Bip]V[Orn][dL][Dab][Cha]V[Thr(3ξ)]C[Orn][Aun]-OH; thioether N-14) the figure was 14.6 nM; with `Cc1cccc(C[C@@H]2NC(=O)[C@H](CC(=O)O)NC(=O)[C@H](Cc3ccc(OCC(=O)O)cc3)NC(=O)[C@H](CN)NC(=O)CSC[C@@H](C(=O)N[C@@H](CCN)C(=O)NCCOCCOCC(=O)NCCCCCCCCCCC(=O)O)NC(=O)[C@H](CCCN)NC(=O)[C@H](C(C)C)NC(=O)[C@H](CC3CCCCC3)NC(=O)[C@H](CCN)NC(=O)[C@@H](CC(C)C)NC(=O)[C@H](CCCN)NC(=O)[C@H](Cc3ccc(C(=O)O)cc3)NC(=O)[C@H](Cc3ccc(-c4ccccc4)cc3)NC(=O)[C@H](Cc3ccc(O)cc3)NC2=O)c1` [Compound 2042] ({CH2CO}-[Dap]Y(Carboxymethyl)D[Phe(3-Me)]Y[Bip][Phe(4-COOH)][Orn][dL][Dab][Cha]V[Orn]C[Dab][AEEA][Aun]-OH; thioether N-14), 5 nM; with `Cc1cccc(C[C@@H]2NC(=O)[C@H](CC(=O)O)NC(=O)[C@H](Cc3ccc(OCC(=O)O)cc3)NC(=O)[C@H](CCCNC(=N)N)N(C)C(=O)CSC[C@@H](C(=O)N[C@@H](CCN)C(=O)NCCCCCCCCCCC(=O)O)NC(=O)[C@H](C(C)O)NC(=O)[C@H](C(C)C)NC(=O)[C@H](CC3CCCCC3)NC(=O)[C@H](CCN)NC(=O)[C@@H](CC(C)C)NC(=O)[C@H](CCCN)NC(=O)[C@H](CCCNC(N)=O)NC(=O)[C@H](Cc3ccc(-c4ccccc4)cc3)NC(=O)[C@H](C(C)C)NC2=O)c1` (stereo partly drawn) [Compound 3562] ({CH2CO}-[NMeR]Y(Carboxymethyl)D[Phe(3-Me)]V[Bip][Cit][Orn][dL][Dab][Cha]V[Thr(3ξ)]C[Dab][Aun]-OH; thioether N-14), 28.4 nM. In the case of `CC(C)C[C@H]1NC(=O)[C@H](CCCN)NC(=O)[C@H](Cc2ccc(C(=O)O)cc2)NC(=O)[C@H](Cc2ccc(-c3ccccc3)cc2)NC(=O)[C@H](Cc2ccc(C(=O)O)cc2)NC(=O)[C@H](Cc2cccc(C(F)(F)F)c2)NC(=O)[C@H](CC(=O)O)NC(=O)[C@H](Cc2ccc(OCC(=O)O)cc2)NC(=O)[C@H](Cc2ccc(OCC(=O)O)cc2)NC(=O)CSC[C@@H](C(=O)N[C@@H](CCN)C(=O)NCCCCCCCCCCCCCCC(=O)O)NC(=O)[C@H](CC(=O)O)NC(=O)[C@H](C(C)C)NC(=O)[C@H](CC2CCCCC2)NC(=O)[C@H](CCN)NC1=O` [Compound 3848] ({CH2CO}-Y(Carboxymethyl)Y(Carboxymethyl)D[Phe(3-CF3)][Phe(4-COOH)][Bip][Phe(4-COOH)][Orn][dL][Dab][Cha]VDC[Dab]-{NH(CH2)14COOH}; thioether N-14) it was 317 nM. `Cc1cccc(C[C@@H]2NC(=O)[C@H](CC(=O)O)NC(=O)[C@H](Cc3ccc(OCC(=O)O)cc3)NC(=O)[C@H](CCCNC(=N)N)NC(=O)CSC[C@@H](C(=O)N[C@@H](CCN)C(=O)NCCCCCCCCCCC(=O)O)NC(=O)[C@H](C(C)O)NC(=O)[C@H](C(C)C)NC(=O)[C@H](CC3CCCCC3)NC(=O)[C@H](CCN)NC(=O)[C@@H](CC(C)C)NC(=O)[C@H](CCCN)NC(=O)[C@H](Cc3ccc(C(=O)O)cc3)NC(=O)[C@H](Cc3ccc(-c4ccccc4)cc3)NC(=O)[C@H](Cc3ccc(C(=O)O)cc3)NC2=O)c1` (stereo partly drawn) [Compound 3491] ({CH2CO}-RY(Carboxymethyl)D[Phe(3-Me)][Phe(4-COOH)][Bip][Phe(4-COOH)][Orn][dL][Dab][Cha]V[Thr(3ξ)]C[Dab][Aun]-OH; thioether N-14): the IC50 was 11.4 nM. Take `Cc1cccc(C[C@@H]2NC(=O)[C@H](CC(=O)O)NC(=O)[C@H](Cc3ccc(OCC(=O)O)cc3)NC(=O)[C@H](CN)NC(=O)CSC[C@@H](C(=O)N[C@@H](C)CC(=O)NCCCCCCCCCCC(=O)O)NC(=O)[C@H]([C@@H](C)O)NC(=O)[C@H](C(C)C)NC(=O)[C@H](CC3CCCCC3)NC(=O)[C@H](CCN)NC(=O)[C@@H](CC(C)C)NC(=O)[C@H](CCCN)NC(=O)[C@H](CCCNC(N)=O)NC(=O)[C@H](Cc3ccc(-c4ccccc4)cc3)NC(=O)[C@H](C(C)C)NC2=O)c1` [Compound 2619]: the IC50 came out at 24.4 nM.

As a reminder, the IC50 is the concentration that inhibits the measured activity by half.
